From ChEMBL document CHEMBL4806968, “Hipk inhibitors and methods of use thereof” (2020)

Key:
[1] = target: T1, Homeodomain-interacting protein kinase 4 (Homo sapiens) (UniProt Q8NE63); assay: Inhibition of HIPK4 (unknown origin) at 0.5 uM relative to control
T1 sequence (whole entry): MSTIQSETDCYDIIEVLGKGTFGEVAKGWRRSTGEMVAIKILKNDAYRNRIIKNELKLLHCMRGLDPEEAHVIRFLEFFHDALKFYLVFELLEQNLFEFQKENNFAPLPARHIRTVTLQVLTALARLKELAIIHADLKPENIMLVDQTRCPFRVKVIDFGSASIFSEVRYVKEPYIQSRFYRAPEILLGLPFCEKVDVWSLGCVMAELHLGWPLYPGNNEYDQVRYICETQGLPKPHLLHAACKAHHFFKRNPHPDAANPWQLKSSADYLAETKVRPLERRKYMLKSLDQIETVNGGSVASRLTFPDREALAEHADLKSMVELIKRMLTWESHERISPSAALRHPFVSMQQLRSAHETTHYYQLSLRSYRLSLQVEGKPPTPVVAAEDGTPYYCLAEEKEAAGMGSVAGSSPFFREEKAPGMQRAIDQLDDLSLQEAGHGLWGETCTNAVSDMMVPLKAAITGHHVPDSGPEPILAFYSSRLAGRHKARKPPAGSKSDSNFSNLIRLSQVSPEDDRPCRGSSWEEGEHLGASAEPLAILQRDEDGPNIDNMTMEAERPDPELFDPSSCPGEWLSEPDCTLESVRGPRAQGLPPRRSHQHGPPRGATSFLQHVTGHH

[2] = target: T2, Discoidin domain-containing receptor 2 (Homo sapiens) (UniProt Q16832); assay: Inhibition of DDR2 (unknown origin) at 0.5 uM relative to control
T2 sequence (whole entry): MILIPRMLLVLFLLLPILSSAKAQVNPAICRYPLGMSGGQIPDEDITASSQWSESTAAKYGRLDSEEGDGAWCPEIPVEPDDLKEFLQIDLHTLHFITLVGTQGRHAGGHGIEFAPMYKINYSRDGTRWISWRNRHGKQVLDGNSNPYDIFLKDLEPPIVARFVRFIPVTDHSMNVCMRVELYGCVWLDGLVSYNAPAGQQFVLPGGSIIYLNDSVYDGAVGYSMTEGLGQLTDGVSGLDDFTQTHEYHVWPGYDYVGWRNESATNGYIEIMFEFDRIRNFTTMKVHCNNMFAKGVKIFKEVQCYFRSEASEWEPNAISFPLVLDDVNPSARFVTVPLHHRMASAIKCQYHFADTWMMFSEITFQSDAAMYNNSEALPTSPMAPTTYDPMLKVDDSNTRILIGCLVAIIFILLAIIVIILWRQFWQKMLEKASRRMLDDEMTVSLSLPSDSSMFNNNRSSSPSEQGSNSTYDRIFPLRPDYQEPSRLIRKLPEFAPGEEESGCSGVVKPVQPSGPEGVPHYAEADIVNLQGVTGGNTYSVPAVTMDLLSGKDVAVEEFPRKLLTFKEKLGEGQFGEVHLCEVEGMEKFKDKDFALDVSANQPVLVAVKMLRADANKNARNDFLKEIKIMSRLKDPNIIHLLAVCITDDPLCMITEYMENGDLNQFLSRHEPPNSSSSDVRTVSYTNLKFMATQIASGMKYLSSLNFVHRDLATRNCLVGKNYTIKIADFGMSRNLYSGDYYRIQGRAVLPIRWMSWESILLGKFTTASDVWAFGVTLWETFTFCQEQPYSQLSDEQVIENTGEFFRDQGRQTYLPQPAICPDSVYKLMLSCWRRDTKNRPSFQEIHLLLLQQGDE

[3] = target: Receptor-type tyrosine-protein kinase FLT3 (Homo sapiens) (UniProt P36888); assay: Inhibition of FLT3 (unknown origin) at 0.5 uM relative to control
Receptor-type tyrosine-protein kinase FLT3 (Homo sapiens), sequence (P36888 whole entry): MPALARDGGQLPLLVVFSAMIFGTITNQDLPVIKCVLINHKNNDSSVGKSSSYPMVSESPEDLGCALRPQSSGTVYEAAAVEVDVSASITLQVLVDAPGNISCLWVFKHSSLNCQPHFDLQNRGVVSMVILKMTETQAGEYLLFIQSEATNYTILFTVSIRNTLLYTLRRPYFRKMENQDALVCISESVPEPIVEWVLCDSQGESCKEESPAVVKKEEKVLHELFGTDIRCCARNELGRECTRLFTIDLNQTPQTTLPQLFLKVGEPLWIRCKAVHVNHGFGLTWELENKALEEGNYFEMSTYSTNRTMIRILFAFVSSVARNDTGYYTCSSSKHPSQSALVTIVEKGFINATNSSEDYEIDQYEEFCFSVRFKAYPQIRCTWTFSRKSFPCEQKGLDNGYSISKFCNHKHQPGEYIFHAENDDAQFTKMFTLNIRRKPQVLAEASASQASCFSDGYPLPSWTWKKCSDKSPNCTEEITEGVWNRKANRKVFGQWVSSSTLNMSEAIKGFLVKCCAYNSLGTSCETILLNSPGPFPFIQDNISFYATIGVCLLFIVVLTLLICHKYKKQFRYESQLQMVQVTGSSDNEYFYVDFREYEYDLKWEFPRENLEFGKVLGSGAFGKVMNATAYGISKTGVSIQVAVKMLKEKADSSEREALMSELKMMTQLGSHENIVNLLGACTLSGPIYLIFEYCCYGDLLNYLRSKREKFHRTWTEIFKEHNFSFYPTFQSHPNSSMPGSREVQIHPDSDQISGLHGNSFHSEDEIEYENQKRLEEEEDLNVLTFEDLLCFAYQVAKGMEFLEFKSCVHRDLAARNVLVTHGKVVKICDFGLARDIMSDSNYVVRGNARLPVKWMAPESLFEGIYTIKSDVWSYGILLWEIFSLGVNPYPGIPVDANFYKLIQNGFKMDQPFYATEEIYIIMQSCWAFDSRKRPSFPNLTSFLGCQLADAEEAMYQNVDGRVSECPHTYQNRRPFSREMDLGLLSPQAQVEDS

[4] = target: T3, Ephrin type-B receptor 4 (Homo sapiens) (UniProt P54760); assay: Inhibition of EPHB4 (unknown origin) at 0.5 uM relative to control
T3 sequence (whole entry): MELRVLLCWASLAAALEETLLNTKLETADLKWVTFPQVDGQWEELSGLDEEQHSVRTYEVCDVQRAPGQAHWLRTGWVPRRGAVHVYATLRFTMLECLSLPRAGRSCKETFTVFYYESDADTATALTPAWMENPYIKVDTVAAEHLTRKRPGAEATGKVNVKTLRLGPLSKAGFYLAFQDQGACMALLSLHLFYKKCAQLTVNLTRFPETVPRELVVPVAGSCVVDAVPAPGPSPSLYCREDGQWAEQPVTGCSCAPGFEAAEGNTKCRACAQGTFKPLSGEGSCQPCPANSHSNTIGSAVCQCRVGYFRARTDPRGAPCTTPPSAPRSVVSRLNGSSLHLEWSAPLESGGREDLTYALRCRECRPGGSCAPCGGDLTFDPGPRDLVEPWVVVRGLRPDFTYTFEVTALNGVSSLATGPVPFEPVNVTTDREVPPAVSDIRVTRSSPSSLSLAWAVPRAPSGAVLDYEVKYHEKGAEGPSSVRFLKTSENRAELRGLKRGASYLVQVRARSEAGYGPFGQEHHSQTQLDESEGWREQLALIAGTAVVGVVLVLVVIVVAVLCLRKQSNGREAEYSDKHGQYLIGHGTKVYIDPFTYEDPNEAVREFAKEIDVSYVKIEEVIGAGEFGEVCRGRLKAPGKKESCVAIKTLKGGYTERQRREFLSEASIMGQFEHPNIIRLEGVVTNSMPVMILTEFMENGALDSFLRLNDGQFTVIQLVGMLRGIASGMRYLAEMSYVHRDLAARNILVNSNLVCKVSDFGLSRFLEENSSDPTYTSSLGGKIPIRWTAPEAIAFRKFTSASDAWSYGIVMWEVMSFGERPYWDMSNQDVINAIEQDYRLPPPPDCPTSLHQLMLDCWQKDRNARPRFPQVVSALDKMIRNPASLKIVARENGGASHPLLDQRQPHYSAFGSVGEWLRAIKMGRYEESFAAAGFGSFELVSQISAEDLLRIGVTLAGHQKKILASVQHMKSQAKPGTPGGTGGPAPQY

| inhibition [1] | inhibition [2] | inhibition [3] | inhibition [4] | Compound |
| --- | --- | --- | --- | --- |
| 84% | 76% | 44% | – | CNC(=O)c1cc(Oc2ccc(NC(=O)c3n[nH]nc3-c3ccc(F)cc3)cc2)ccn1 |
| 97% | 97% | – | 82% | CNC(=O)c1cc(Oc2ccc(NC(=O)c3nc(SC)[nH]c3-c3ccc(F)cc3)cc2)ccn1 |
| 87% | 48% | 27% | – | CSc1nc(C(=O)Nc2ccc(Oc3cc4cnn(C)c4cc3Br)cc2)c(-c2ccc(F)cc2)o1 |
| 96% | 54% | – | – | CNC(=O)c1cc(Oc2ccc(NC(=O)c3nc(NC)sc3-c3ccc(F)cc3)cc2)ccn1 |
| 95% | – | 39% | 24% | CNC(=O)c1cc(Oc2ccc(NC(=O)c3nc(C(F)(F)F)sc3-c3ccc(F)cc3)cc2)ccn1 |
| 96% | 61% | 56% | 24% | CNC(=O)c1cc(Oc2ccc(NC(=O)c3nc(S(C)(=O)=O)sc3-c3ccc(F)cc3)cc2)ccn1 |
| 99% | 58% | – | 42% | CNC(=O)c1cc(Oc2ccc(NC(=O)c3nc(SC)oc3-c3ccc(F)cc3)cc2)ccn1 |
| 91% | 26% | 50% | 25% | CNC(=O)c1cc(Oc2ccc(NC(=O)c3nc(SC)n(CCN(C)C)c3-c3ccc(F)cc3)cc2)ccn1 |
| 98% | 47% | 36% | 43% | CNC(=O)c1cc(Oc2ccc(NC(=O)c3nc(SC)oc3-c3ccc(F)cc3)cc2F)ccn1 |
